Laboratory results from US12629408B2, “Peptides with anti-tumor activity” (UNIVERSITA' DEGLI STUDI DI PADOVA, priority 2019, dated 2026).
Where two headings read alike, the source gives them in different places. Square brackets hold non-standard residues; d marks the D form. Ends that are not written are not given here. Ahx = NCCCCCC(=O)O; βAla = NCCC(=O)O

Columns and labels:
[1] = test system: non-tumor tissues; experiment: Autopsy and histological evaluation of internal organs of treated mice
Description: (§2) At the end of each experiment shown in FIGS. 2, 3 and 4, and described in Example 2, male and female Balb/c mice underwent a complete autopsy with the assistance of an anatomopathologist expert. […] The group of mice not receiving any peptide treatment (NaCl) acts as an additional control.
(§3) List of organs or tissues analyzed: heart, skeletal muscle, kidney, spleen, lung, liver, brain, intestine, pancreas, bone marrow, lymph nodes, thyroid gland, parathyroid glands, and adrenal glands.

[2] = test system: non-tumor tissues; conditions: mouse, in vivo
Description: as §2, §3

[3] = test system: murine colon carcinoma line CT26; experiment: In vivo colon cancer, CT26 subcutaneous tumor, injection into the tumors (FIG. 1); parameters: species or system Balb/c mice
Procedure: (§1) 100,000 tumor cells from the murine colon carcinoma line CT26 were injected subcutaneously (in the right flank) to male Balb/c mice. The transplanted cells give rise to a subcutaneous tumor clearly visible from the outside in just over a week. Using this in vivo tumorigenesis procedure, we conducted three different experiments (described below) whose results are represented in FIGS. 1, 2 and 3.
At 8 days post-cell inoculation, the mice were divided into three groups (FIG. 1) and saline boluses (NaCl) without any other solute, or containing the active form of ACPP-HK2 resulting from the proteolytic cut (pepHK2, 2 nmol/injection), or finally containing the entire ACPP-HK2 (2 nmol/injection) were injected into the tumors. Each bolus consisted of 20 μl solution and was injected every 12 hours up to 60 hours. 72 hours after the start of the treatment, the mice were sacrificed, and the tumor volume was measured.

[4] = test system: murine breast cancer cell line 4T1; experiment: In vivo breast cancer, 4T1 subcutaneous tumor, intraperitoneal injections (FIG. 4); parameters: species or system mice; conditions: 4T1, intraperitoneal, 60 nmoles every 12 hours up to 60 hours
Procedure: In this experiment (FIG. 4), 200,000 murine breast cancer cell line 4T1 were injected subcutaneously into female mice. At 9 days post-inoculation of the cells, the mice were divided into two experimental groups and 60 nmoles of peptides (ACPP-HK2 or ACPP-SCR) dissolved in 500 μl of saline solution were injected intraperitoneally. The injections followed one the other every 12 hours up to 60 hours and at 72 hours the experiment ended.

[5] = test system: HeLa cervical cancer cell line; experiment: Cell viability after treatment with ACPP-HK2 sequence variants; format: cell-based, human; conditions: between 5 and 50 μM, 18 or 36 hours
Description: FIGS. 9A and 9B report cell viability after treatment of tumor cells (HeLa cervical cancer cell line) at various concentrations and times with the peptides ACPP-HK2 (SEQ ID NO:1), ACPP-HK2 II (SEQ ID) NO: 8), ACPP-HK2 III (SEQ ID NO: 9) and ACPP-HK2 IV (SEQ ID NO:10).

[6] = test system: murine colon carcinoma line CT26; experiment: In vivo colon cancer, CT26 subcutaneous tumor, intraperitoneal injections (FIGS. 2, 3); parameters: species or system Balb/c mice
Procedure: as §1
Administration was performed every 12 hours by means of intraperitoneal injections of 500 μl each containing 30 nmoles of peptide (ACPP-HK2 or ACPP-SCR). […] Every 48 hours the size of the tumors was measured externally, and their volumes calculated.
In this experiment, a double dose of peptides (60 nmoles/injection) was administered compared to the second experiment, again by intraperitoneal injection.

In the case of “VGAHAGEYGAEALER βA RRRRRRRRR PLGLAG Ahx EEEEEEEE (VGAHAGEYGAEALER[βAla]RRRRRRRRRPLGLAG[Ahx]EEEEEEEE) [ACPP-SCR, reference compound]”, the “histological characteristics of formalin-fixed sections of internal organs” value ([1]; mice of the experiments of FIGS. 2, 3 and 4, heart, skeletal muscle, kidney, spleen, lung, liver, brain and others) is reported as “without finding any differences among different experimental groups (ACPP-SCR and ACPP-HK2) or any tissue alterations”.

With “MIASHLLAYFFTELN βA RRRRRRRRR PLGLAG Ahx EEEEEEEE (MIASHLLAYFFTELN[βAla]RRRRRRRRRPLGLAG[Ahx]EEEEEEEE) [ACPP-HK2]” the “toxic side effect for non-tumor tissues and the whole organism” value ([1]; expert's conclusion after autopsy and histology) was “no toxic side effect”, the “histological characteristics of formalin-fixed sections of internal organs” value [2] was “without finding any differences among different experimental groups (ACPP-SCR and ACPP-HK2) or any tissue alterations” and the “tumor growth (tumor volume)” value ([3]; 2 nmol/injection into the tumors every 12 hours up to 60 hours, measured at 72 hours, vs saline) was “reduce tumor growth”. For the same substance, the “efficacy on tumor growth, ACPP-HK2 compared with pepHK2” value ([3]; 2 nmol/injection into the tumors, 72 hours) was “more effective”, the tumor growth [4] was “almost blocked” and the “tumor volume vs ACPP-SCR control” value ([4]; end at 72 hours) was “significantly smaller in volume than control tumors injected with ACPP-SCR”. The cell viability [5] was “able to decrease cell viability of cancer cells”, the “tumor volume vs ACPP-SCR control” value ([6]; 30 nmoles every 12 hours, after 48 and 96 hours) was “significantly smaller in volume than the control tumors injected with ACPP-SCR” and the tumor growth ([6]; 60 nmoles/injection every twelve hours up to the sixtieth hour) was “strongly reduces, up to almost blocking, tumor growth”.

With “SHLLAYFFTELNHD-RRRRRRRRR-PLGLAG-Ahx-EEEEEEEE (SHLLAYFFTELNHDRRRRRRRRRPLGLAG[Ahx]EEEEEEEE) [ACPP-HK2 IV, variant ACPP-HK2 IV of the peptide ACPP-HK2, 38-amino acid peptide]” the cell viability [5] was “able to decrease cell viability of cancer cells”.

“SHLLAYFFTELN-RRRRRRRRR-PLGLAG-Ahx-EEEEEEEE (SHLLAYFFTELNRRRRRRRRRPLGLAG[Ahx]EEEEEEEE) [ACPP-HK2 II, variant ACPP-HK2 II of the peptide ACPP-HK2, 36-amino acid peptide]” was tested, and the cell viability [5] was “able to decrease cell viability of cancer cells”.

For “SHLLAYFFTELN-GRKKRRQRRRG-PLGLAG-Ahx-EEEEEEEE (SHLLAYFFTELNGRKKRRQRRRGPLGLAG[Ahx]EEEEEEEE) [ACPP-HK2 III, variant ACPP-HK2 III of the peptide ACPP-HK2, 38-amino acid peptide]”, the cell viability [5] was “able to decrease cell viability of cancer cells”.
